Results: ChEMBL document CHEMBL3885861, “Open TG-GATES”

Species: Rattus norvegicus
Experiment: Open TG-GATES - Regimen: Daily Repeat
Assay type: toxicity, organism-based, Sprague-Dawley
Set-up: regimen Daily Repeat, gender Male, age 6 weeks
Details: in vivo, po, 100 mg/kg, route gavage, dose level High; for APTT / Bas / Eos / Fbg / Hb / Ht / Lym / MCHC / MCV / Mono / Neu / PT / Plat / RBC / Ret / WBC: tissue Blood; for KIDNEY_L / KIDNEY_R / KIDNEY_TOTAL: tissue Kidney; for LIVER: tissue Liver; for ALP / ALT / AST / BUN / CRE / Ca / Cl / DBIL / GLC / IP / K / LDH / Na / PL / RALB / TBIL / TC / TG / TP / gamma-GTP: tissue Plasma

`CS(=O)(=O)Nc1ccc([N+](=O)[O-])cc1Oc1ccccc1` [NIMESULIDE] showed a TERMINAL_BW (72 h, time 3 day) of 201.1 g, an APTT (72 h, time 3 day) of 17.3 s and a Bas (72 h, time 3 day) of 0%. For the same compound, the Eos (72 h, time 3 day) was 1.4%, the Fbg (72 h, time 3 day) was 222 mg/dL and the Hb (72 h, time 3 day) was 14.1 g/dL. For the same compound, the Ht (72 h, time 3 day) was 41.6%, the Lym (72 h, time 3 day) was 66.8% and the MCHC (72 h, time 3 day) was 34%. The MCV (72 h, time 3 day) was 64.1 fL, the Mono (72 h, time 3 day) was 8.6% and the Neu (72 h, time 3 day) was 22.8%. It also gave a PT (72 h, time 3 day) of 11.6 s, a Plat (72 h, time 3 day) of 113.5 x10_4/uL and an RBC (72 h, time 3 day) of 649.4 x10_4/ul. It also gave a Ret (72 h, time 3 day) of 6.7%, a WBC (72 h, time 3 day) of 100.9 x10_2/uL and a KIDNEY_L (72 h, time 3 day) of 0.9 g. For the same compound, the KIDNEY_R (72 h, time 3 day) was 0.9 g, the KIDNEY_TOTAL (72 h, time 3 day) was 1.9 g and the LIVER (72 h, time 3 day) was 10.5 g. For the same compound, the ALP (72 h, time 3 day) was 841.4 IU/L, the ALT (72 h, time 3 day) was 37.4 IU/L and the AST (72 h, time 3 day) was 63.8 IU/L. It also gave a BUN (72 h, time 3 day) of 21.8 mg/dL, a CRE (72 h, time 3 day) of 0.5 mg/dL and a Ca (72 h, time 3 day) of 10.9 mg/dL. The Cl (72 h, time 3 day) was 105 meq/L, the DBIL (72 h, time 3 day) was 0.06 mg/dL and the GLC (72 h, time 3 day) was 178.2 mg/dL. It also gave an IP (72 h, time 3 day) of 6.7 mg/dL, a K (72 h, time 3 day) of 4.4 meq/L and an LDH (72 h, time 3 day) of 97.2 IU/L. For the same compound, the Na (72 h, time 3 day) was 141.4 meq/L, the PL (72 h, time 3 day) was 168.2 mg/dL and the RALB (72 h, time 3 day) was 4.1 g/dL. The TBIL (72 h, time 3 day) was 0.3 mg/dL, the TC (72 h, time 3 day) was 91.2 mg/dL and the TG (72 h, time 3 day) was 60.6 mg/dL. For the same compound, the TP (72 h, time 3 day) was 5.6 g/dL, the gamma-GTP (72 h, time 3 day) was 1.8 IU/L and the TERMINAL_BW ([…], time 7 day) was 235.6 g. The TERMINAL_BW ([…], time 14 day) was 287.5 g, the TERMINAL_BW ([…], time 28 day) was 332.9 g and the APTT ([…], time 7 day) was 19.1 s. The Bas ([…], time 7 day) was 0%, the Eos ([…], time 7 day) was 1.2% and the Fbg ([…], time 7 day) was 275.5 mg/dL. It also gave a Hb ([…], time 7 day) of 13.3 g/dL, a Ht ([…], time 7 day) of 39.3% and a Lym ([…], time 7 day) of 62.5%. The MCHC ([…], time 7 day) was 33.7%, the MCV ([…], time 7 day) was 63 fL and the Mono ([…], time 7 day) was 6.2%. For the same compound, the Neu ([…], time 7 day) was 30.2%, the PT ([…], time 7 day) was 11.2 s and the Plat ([…], time 7 day) was 135.9 x10_4/uL. It also gave an RBC ([…], time 7 day) of 624.5 x10_4/ul, a Ret ([…], time 7 day) of 11.2% and a WBC ([…], time 7 day) of 138.2 x10_2/uL. The APTT ([…], time 14 day) was 17.7 s, the Bas ([…], time 14 day) was 0% and the Eos ([…], time 14 day) was 1.4%. For the same compound, the Fbg ([…], time 14 day) was 250.2 mg/dL, the Hb ([…], time 14 day) was 13.6 g/dL and the Ht ([…], time 14 day) was 39.4%. For the same compound, the Lym ([…], time 14 day) was 55.8%, the MCHC ([…], time 14 day) was 34.4% and the MCV ([…], time 14 day) was 65.7 fL. The Mono ([…], time 14 day) was 9.8%, the Neu ([…], time 14 day) was 32.8% and the PT ([…], time 14 day) was 11.6 s. It also gave a Plat ([…], time 14 day) of 141.2 x10_4/uL, an RBC ([…], time 14 day) of 605 x10_4/ul and a Ret ([…], time 14 day) of 14%. For the same compound, the WBC ([…], time 14 day) was 143.9 x10_2/uL, the APTT ([…], time 28 day) was 18.9 s and the Bas ([…], time 28 day) was 0%. For the same compound, the Eos ([…], time 28 day) was 1.4%, the Fbg ([…], time 28 day) was 235.2 mg/dL and the Hb ([…], time 28 day) was 15.4 g/dL. The Ht ([…], time 28 day) was 45.6%, the Lym ([…], time 28 day) was 71.8% and the MCHC ([…], time 28 day) was 33.7%. The MCV ([…], time 28 day) was 59.4 fL, the Mono ([…], time 28 day) was 8% and the Neu ([…], time 28 day) was 19.2%. The PT ([…], time 28 day) was 11.9 s, the Plat ([…], time 28 day) was 118.9 x10_4/uL and the RBC ([…], time 28 day) was 769.2 x10_4/ul. The Ret ([…], time 28 day) was 4%, the WBC ([…], time 28 day) was 126.2 x10_2/uL and the KIDNEY_L ([…], time 7 day) was 1.1 g. For the same compound, the KIDNEY_R ([…], time 7 day) was 1.1 g, the KIDNEY_TOTAL ([…], time 7 day) was 2.2 g and the KIDNEY_L ([…], time 14 day) was 1.2 g. It also gave a KIDNEY_R ([…], time 14 day) of 1.3 g, a KIDNEY_TOTAL ([…], time 14 day) of 2.5 g and a KIDNEY_L ([…], time 28 day) of 1.3 g. It also gave a KIDNEY_R ([…], time 28 day) of 1.3 g, a KIDNEY_TOTAL ([…], time 28 day) of 2.6 g and an LIVER ([…], time 7 day) of 12.7 g. For the same compound, the LIVER ([…], time 14 day) was 16.1 g, the LIVER ([…], time 28 day) was 17 g and the ALP ([…], time 7 day) was 860.8 IU/L. For the same compound, the ALT ([…], time 7 day) was 32.2 IU/L, the AST ([…], time 7 day) was 63.2 IU/L and the BUN ([…], time 7 day) was 20 mg/dL. For the same compound, the CRE ([…], time 7 day) was 0.6 mg/dL, the Ca ([…], time 7 day) was 10.9 mg/dL and the Cl ([…], time 7 day) was 105.5 meq/L. For the same compound, the DBIL ([…], time 7 day) was 0.0275 mg/dL, the GLC ([…], time 7 day) was 199.5 mg/dL and the IP ([…], time 7 day) was 6.6 mg/dL. For the same compound, the K ([…], time 7 day) was 4.4 meq/L, the LDH ([…], time 7 day) was 75.8 IU/L and the Na ([…], time 7 day) was 141.2 meq/L. For the same compound, the PL ([…], time 7 day) was 166.8 mg/dL, the RALB ([…], time 7 day) was 4 g/dL and the TBIL ([…], time 7 day) was 0.4 mg/dL. It also gave a TC ([…], time 7 day) of 92 mg/dL, a TG ([…], time 7 day) of 68.5 mg/dL and a TP ([…], time 7 day) of 6 g/dL. The gamma-GTP ([…], time 7 day) was 1.5 IU/L, the ALP ([…], time 14 day) was 842 IU/L and the ALT ([…], time 14 day) was 31.4 IU/L. It also gave an AST ([…], time 14 day) of 60.8 IU/L, a BUN ([…], time 14 day) of 24.6 mg/dL and a CRE ([…], time 14 day) of 0.6 mg/dL. The Ca ([…], time 14 day) was 10.7 mg/dL, the Cl ([…], time 14 day) was 105.4 meq/L and the DBIL ([…], time 14 day) was 0.008 mg/dL. It also gave a GLC ([…], time 14 day) of 184.8 mg/dL, an IP ([…], time 14 day) of 7 mg/dL and a K ([…], time 14 day) of 4.5 meq/L. It also gave an LDH ([…], time 14 day) of 79.8 IU/L, a Na ([…], time 14 day) of 141.6 meq/L and a PL ([…], time 14 day) of 171 mg/dL. The RALB ([…], time 14 day) was 4 g/dL, the TBIL ([…], time 14 day) was 0.4 mg/dL and the TC ([…], time 14 day) was 90.4 mg/dL. The TG ([…], time 14 day) was 98.8 mg/dL, the TP ([…], time 14 day) was 5.9 g/dL and the gamma-GTP ([…], time 14 day) was 2.2 IU/L. The ALP ([…], time 28 day) was 656.6 IU/L, the ALT ([…], time 28 day) was 27.6 IU/L and the AST ([…], time 28 day) was 57.8 IU/L. It also gave a BUN ([…], time 28 day) of 24 mg/dL, a CRE ([…], time 28 day) of 0.6 mg/dL and a Ca ([…], time 28 day) of 10.9 mg/dL. For the same compound, the Cl ([…], time 28 day) was 107.4 meq/L, the DBIL ([…], time 28 day) was 0.018 mg/dL and the GLC ([…], time 28 day) was 180.6 mg/dL. For the same compound, the IP ([…], time 28 day) was 6.8 mg/dL, the K ([…], time 28 day) was 4.5 meq/L and the LDH ([…], time 28 day) was 71.2 IU/L. It also gave a Na ([…], time 28 day) of 144.4 meq/L, a PL ([…], time 28 day) of 182.2 mg/dL and an RALB ([…], time 28 day) of 4.2 g/dL. The TBIL ([…], time 28 day) was 0.4 mg/dL, the TC ([…], time 28 day) was 100.4 mg/dL and the TG ([…], time 28 day) was 102.6 mg/dL. The TP ([…], time 28 day) was 6.2 g/dL and the gamma-GTP ([…], time 28 day) was 1.6 IU/L.
